Source: US6828315B1, “1-Amino triazoloc4,3-a! quinazoline-5-ones and/or -5-thiones inhibiting phosphodiesterase IV” (Warner-Lambert LLC, priority 1999, dated 2004)

melting point	Compound
198 °C	O=c1nc2n(C/C=C/c3ccccc3)nc(N3CCCCCC3)n2c2ccc(Br)cc12 [Compound 140, 1-Azepan-1-yl-7-bromo-3-((E)-3-phenyl-allyl)-3H-[1,2,4]triazolo(4,3-a]quinazolin-5-one]
187 °C	O=c1nc2n(C/C=C/c3ccccc3)nc(N3CCCCC3)n2c2ccc(Br)cc12 [Compound 141, 7-Bromo-3-((E)-3-phenyl-allyl)-1-piperidin-1-yl-3H-[1,2,4]triazolo[4,3-a]quinazolin-5one]
233 °C	O=c1nc2n(Cc3ccc(F)cc3)nc(N3CCCC3)n2c2ccc(Br)cc12 [Compound 143, 7-bromo-3-(4-fluorobenzyl)-1-(pyrrolidin-1-yl)-3H-[1,2,4]triazolo[4,3-a]quinazolin-5-one]
222 °C	N#Cc1ccc(Cn2nc(N3CCCC3)n3c4ccc(Br)cc4c(=O)nc23)cc1 [Compound 144, 4-(7-bromo-5-oxo-1-(pyrrolidin-1-yl)-5H-[1,2,4]triazolo[4,3-a]-quinazolin-3-ylmethyl)-benzonitrile]
193 °C	COC(=O)c1ccc(Cn2nc(N3CCCC3)n3c4ccc(Br)cc4c(=O)nc23)cc1 [Compound 145, 4-(7-bromo-5-oxo-1-(pyrrolidin-1-yl)-5H-[1,2,4]triazolo[4,3-a]-quinazolin-3-ylmethyl)benzoic acid methyl ester]
164 °C	COc1ccc(Cn2nc(N3CCCC3)n3c4ccc(Br)cc4c(=O)nc23)cc1 [Compound 146, 7-Bromo-3-(4-methoxy-benzyl)-1-pyrrolidin-1-yl-3H-[1,2,4]triazolo[4,3-a]quinazolin-5-one]
199 °C	CC(=O)Oc1ccc(Cn2nc(N3CCCC3)n3c4ccc(Br)cc4c(=O)nc23)cc1 [Compound 147, Acetic acid 4-(7-bromo-5-oxo-1-pyrrolidin-1-yl-5H-[1,2,4]triazolo[4,3-a]quinazolin-3-ylmethyl)phenyl ester]
283 °C	CN(C)c1nn(Cc2ccc(O)cc2)c2nc(=O)c3cc(Br)ccc3n12 [Compound 148, 7-Bromo-1-dimethylamino-3-(4-hydroxy-benzyl)-3H-[1,2,4)triazolo[4,3-a]quinazolin-5-one]
168 °C	COc1cc(Cn2nc(N3CCCC3)n3c4ccc(Br)cc4c(=O)nc23)cc(OC)c1 [Compound 150, 7-bromo-3-(3,5-dimethoxy-benzyl)-1-(pyrrolidin-1-yl)-3H-[1,2,4]triazolo-[4,3-a]quinazolin-5-one]
199 to 201 °C	COc1cc(Cn2nc(N3CCCC3)n3c4ccc(Br)cc4c(=O)nc23)cc(OC)c1OC [Compound 151, 7-bromo-1-(pyrrolidin-1-yl)-3-(3,4,5-trimethoxybenzyl)-3H-[1,2,4]triazolo[4,3-a]quinazolin-5-one]
130 °C	CCCCn1nc(N2CCCC2)n2c3ccc(Br)cc3c(=O)nc12 [Compound 153, 7-bromo-3-(n-butyl)-1-(pyrrolidin-1-yl)-3H-[1,2,4]triazolo[4,3-a]-quinazolin-5-one]
187 °C	COC(=O)C(c1ccccc1)n1nc(N2CCCC2)n2c3ccc(Br)cc3c(=O)nc12 (stereo not shown) [Compound 154, (7-Bromo-5oxo-1-pyrrolidin-1-yl-5H-[1,2,4]triazolo[4,3-a]quinazolin-3-yl)-phenyl-acetic acid methyl ester]
206 °C	CN(C)c1nn(CC=Cc2ccccc2)c2nc(=O)c3cc(Br)ccc3n12 [Compound 155, 7-Bromo-1-dimethylamino-3-(3-phenyl-allyl)-3H-[1,2,4]triazolo[4,3-a]quinazolin-5-one]

The next lines start with the compound.

Compound	melting point
O=c1nc2n(Cc3ccc(Cl)cc3)nc(N3CCCCCC3)n2c2ccc(Cl)cc12 [Compound 115, 1-(azepan-1-yl)-7-chloro-3-(4-chlorobenzyl)-3H-[1,2,4]triazolo[4,3-a]quinazolin-5-one]	245 °C
O=c1nc2n(Cc3ccc(Br)cc3)nc(N3CCCCCC3)n2c2ccc(Cl)cc12 [Compound 116, 1-(azepan-1-yl)-7-chloro-3-(4-bromobenzyl)-3H-[1,2,4]triazolo(4,3-a]quinazolin-5-one]	244 °C
O=c1nc2n(Cc3ccc(F)cc3)nc(N3CCCCCC3)n2c2ccc(Cl)cc12 [Compound 117, 1-(azepan-1-yl)-7-chloro-3-(4-fluorobenzyl)-3H-[1,2,4)triazolo[4,3-a]quinazolin-5-one]	224 °C
O=c1nc2n(Cc3ccc(C(F)(F)F)cc3)nc(N3CCCCCC3)n2c2ccc(Cl)cc12 [Compound 118, 1-(azepan-1-yl)-7-chloro-3-(4-(trifluoromethyl)benzyl)-3H-[1,2,4]triazolo[4,3-a]quinazolin-5-one]	232 °C
N#Cc1ccc(Cn2nc(N3CCCCCC3)n3c4ccc(Cl)cc4c(=O)nc23)cc1 [Compound 119, 1-(azepan-1-yl)-7-chloro-3-(4-cyanobenzyl)-3H-[1,2,4]triazolo[4,3-a]quinazolin-5-one]	> 260 °C
COc1ccccc1Cn1nc(N2CCCCCC2)n2c3ccc(Cl)cc3c(=O)nc12 [Compound 120, 1-(azepan-1-yl)-7-chloro-3-(2-methoxybenzyl)-3H-[1,2,4]triazolo[4,3-a]quinazolin-5-one]	184 °C
COc1cccc(Cn2nc(N3CCCCCC3)n3c4ccc(Cl)cc4c(=O)nc23)c1 [Compound 121, 1-(azepan-1-yl)-7-chloro-3-(3-methoxybenzyl)-3H-[1,2,4]triazolo[4,3-a]quinazolin-5-one]	163 °C
COc1ccc(Cn2nc(N3CCCCCC3)n3c4ccc(Cl)cc4c(=O)nc23)cc1 [Compound 122, 1-(azepan-1-yl)-7-chloro-3-(4-methoxybenzyl)-3H-[1,2,4]triazolo[4,3-a]quinazolin-5-one]	164 to 165 °C
O=c1nc2n(Cc3ccc(Cl)c(Cl)c3)nc(N3CCCCCC3)n2c2ccc(Cl)cc12 [Compound 123, 1-(azepan-1-yl)-7-chloro-3-(3,4-dichlorobenzyl)-3H-[1,2,4]triazolo[4,3-a]quinazolin-5-one]	212 °C
COc1ccc(Cn2nc(N3CCCCCC3)n3c4ccc(Cl)cc4c(=O)nc23)cc1OC [Compound 124, 1-(azepan-1-yl)-7-chloro-3-(3,4-dimethoxybenzyl)-3H-[1,2,4]triazolo[4,3-a]quinazolin-5-one]	153 °C
O=c1nc2n(Cc3ccccn3)nc(N3CCCCCC3)n2c2ccc(Cl)cc12 [Compound 125, 1-(azepan-1-yl)-7-chloro-3-(2-pyridylmethyl)-3H-[1,2,4]triazolo[4,3-a]quinazolin-5-one]	153 °C
O=c1nc2n(Cc3cccnc3)nc(N3CCCCCC3)n2c2ccc(Cl)cc12 [Compound 126, 1-(azepan-1-yl)-7-chloro-3-(3-pyridylmethyl)-3H-[1,2,4]triazolo[4,3-a]quinazolin-5-one]	184 °C
COc1ccc(CCn2nc(N3CCCCCC3)n3c4ccc(Cl)cc4c(=O)nc23)cc1 [Compound 128, 1-(azepan-1-yl)-7-chloro-3-[2-(4-methoxyphenyl)ethyl)-3H-[1,2,4]triazolo[4,3-a]quinazolin-5-one]	196 °C
O=c1nc2n(CCCc3ccccc3)nc(N3CCCCCC3)n2c2ccc(Cl)cc12 [Compound 129, 1-(azepan-1-yl)-7-chloro-3-(3-phenylpropyl)-3H-[1,2,4]triazolo[4,3-a]quinazolin-5-one]	130 °C
O=C(Cn1nc(N2CCCCCC2)n2c3ccc(Cl)cc3c(=O)nc12)c1ccccc1 [Compound 130, 1-Azepan-1-yl-7-chloro-3-(2-oxo-2-phenyl-ethyl)3H-[1,2,4]triazolo[4,3-a]quinazolin-5-one]	230 to 232 °C
COc1ccc(C(=O)Cn2nc(N3CCCCCC3)n3c4ccc(Cl)cc4c(=O)nc23)cc1 [Compound 131, 1-(azepan-1-yl)-7-chloro-3-(2-(4-methoxyphenyl)-2-oxoethyl]-3H-[1,2,4]triazolo[4,3-a]quinazolin-5-one]	238 °C
O=C(Cn1nc(N2CCCCCC2)n2c3ccc(Cl)cc3c(=O)nc12)c1ccc(Cl)cc1 [Compound 132, 1-(azepan-1-yl)-7-chloro-3-[2-(4-chlorophenyl)-2-oxoethyl)-3H-[1,2,4]triazolo[4,3-a]quinazolin-5-one]	238 °C
COC(=O)c1cc(C(=O)Cn2nc(N3CCCCCC3)n3c4ccc(Cl)cc4c(=O)nc23)ccc1OC [Compound 133, 5-[(1-(azepan-1-yl)-7-chloro-5-oxo-5H-[1,2,4]triazolo[4,3-a]-quinazolin-3-yl)acetyl]-2-methoxybenzoic acid methyl ester]	136 °C
O=c1nc2n(Cc3ccc(Cl)cc3)nc(N3CCCCCC3)n2c2ccc(Br)cc12 [Compound 134, 1-(azepan-1-yl)-7-bromo-3-(4-chlorobenzyl)-3H-[1,2,4]triazolo[4,3-a]quinazolin-5-one]	247 °C
O=c1nc2n(Cc3ccc(F)cc3)nc(N3CCCCCC3)n2c2ccc(Br)cc12 [Compound 135, 1-(azepan-1-yl)-7-bromo-3-(4-fluorobenzyl)-3H-[1,2,4]triazolo[4,3-a]quinazolin-5-one]	216 °C
N#Cc1ccc(Cn2nc(N3CCCCCC3)n3c4ccc(Br)cc4c(=O)nc23)cc1 [Compound 136, 4(1-(azepan-1-yl)-7-bromo-5-oxo-5H-[1,2,4]triazolo[4,3-a]-quinazolin-3-ylmethyl)-benzonitrile]	293 °C
COc1ccc(Cn2nc(N3CCCCCC3)n3c4ccc(Br)cc4c(=O)nc23)cc1OC [Compound 137, 1-(azepan-1-yl)-7-bromo-3-(3,4dimethoxybenzyl)-3H-[1,2,4]triazolo[4,3-a]quinazolin-5-one]	174 °C
O=C(O)Cc1ccc(Cn2nc(N3CCCCCC3)n3c4ccc(Br)cc4c(=O)nc23)cc1 [Compound 138, [4-(7-Bromo-5-oxo-1-perhydro-azepin-1-yl-5H-[1,2,4]triazolo[4,3-a]quinazolin-3-ylmethyl)-phenyl]-acetic acid]	269 °C
O=c1nc2n(Cc3cccnc3)nc(N3CCCCCC3)n2c2ccc(Br)cc12 [Compound 139, 1-(azepan-1-yl)-7-bromo-3-(pyridin-3-ylmethyl)-3H-[1,2,4]triazolo[4,3-a]quinazolin-5-one]	192 °C
